Data from patent US20100203125A1, “SYNERGISTIC ANTIBACTERIAL FORMULATION AND A METHOD OF MAKING THE SAME” (priority 2004, published 2010).
Values after ≈ are worked out from the molar mass of the structure shown. Like-named read-outs stand apart in the source and are kept apart here.

Key:
Streptococcus pneumoniae = conditions: cited from earlier work
Streptococcus pyogenes = conditions: cited from earlier work
[1] = system: Staphylococcus epidermidis; conditions: cited from earlier work
[2] = Clinical Trial 2, comparative plasma concentration study; conditions: for Plasma concentration from the formulation compared with conventional separate dosing: human, in vivo
Protocol: Comparative studies were conducted on 24 healthy male patients who were pre-tested for non-allergic conditions against Betalactam and Cephalsporin antibiotics.

plasma proteins = conditions: cited from earlier work
Staphylococcus aureus = conditions: cited from earlier work
[3] = in vivo, cited from earlier work; for Serum half-life / half life / Bioavailability after oral administration: human
Neisseria gonorrhoeae = conditions: cited from earlier work
S. aureus [C2] = test: Zone of inhibition study; assay type: cell-based; conditions: 37° C. 24 hours, excluding well diameter
Protocol: (§1) Quantitative methods of susceptibility testing that require measurements of zone diameters give the most precise estimates of antibiotic susceptibility. Zone of inhibition study was performed Cefixime and dicloxacillin combination with suitable concentration and compare with the zone of inhibition of individual antibiotic to study the synergy. Nutrient Agar plates (duplicate sets) were used for inoculation of microorganism culture using spread plate technique. Wells of 6.0 mm diameter were made in agar plate and test and standard antibiotics preparations were placed in the respective wells. Suitable control plates and plates with no antibiotics were simultaneously then inoculated after appropriate dilution on separate nutrient agar plates (duplicate sets) using spread plate technique. […] All the diameters [zone of inhibition] were measure excluding the well diameter. Four species of bacteria namely E. coli [C1], S. aureus [C2], Salmonella typhimurium [C3], and S. epidermidis [C4] were selected for zone of inhibition study. […] There was no zone of inhibitions found for control plates.

E. coli [C1] = test: Zone of inhibition study; assay type: cell-based; conditions: 37° C. 24 hours, excluding well diameter
Protocol: as §1

S. epidermidis [C4] = test: Zone of inhibition study; assay type: cell-based; conditions: 37° C. 24 hours, excluding well diameter
Protocol: as §1

[4] = system: Salmonella typhimurium [C3]; test: Zone of inhibition study; assay type: cell-based; conditions: 37° C. 24 hours, excluding well diameter
Protocol: as §1

[5] = in vivo; cited from earlier work
[6] = Plasma concentration levels of cefixime and dicloxacillin formulation (Table 4); conditions: in vivo
[7] = cited from earlier work

In the case of `Cc1onc(-c2ccccc2Cl)c1C(=O)N[C@@H]1C(=O)N2[C@@H]1SC(C)(C)[C@@H]2C(=O)O` [Cloxacillin], the MIC90 (Streptococcus pneumoniae) is listed as 0.25 µg/mL (≈ 0.574 µM), the MIC90 (Streptococcus pyogenes) is listed as 0.1 µg/mL (≈ 0.229 µM) and the MIC90 [1] is listed as 0.1 µg/mL (≈ 0.229 µM). For the same molecule, the “Plasma concentration from the formulation compared with conventional separate dosing” value [2] was “significantly better plasma concentration”, the Plasma protein binding (plasma proteins; plasma) was 93-95% and the MIC90 (Staphylococcus aureus) was 0.1 µg/mL (≈ 0.229 µM). For the same molecule, the “Serum half-life / half life” value [3] was 24 to 48 min, the Urinary clearance rate ([3]; iv) was 162.2 mL/min and the Cmax [3] was 8 mg/L. For the same molecule, the Half life [3] was 38 min, the Plasma half life [3] was 0.5 h-0.65 and the Plasma half-life [3] was 30 to 90 min. The MIC90 (Neisseria gonorrhoeae) was 0.1 µg/mL (≈ 0.229 µM).
For `Cc1onc(-c2ccccc2)c1C(=O)N[C@@H]1C(=O)N2[C@@H]1SC(C)(C)[C@@H]2C(=O)O` [oxacillin], the “Bound to plasma proteins” value (plasma proteins; plasma) is given as 89-94% and the “Serum half-life / half life” value [3] is given as 18 to 48 min.
In the case of `Cc1onc(-c2ccccc2)c1C(=O)NC1C(=O)N2[C@@H]1SC(C)(C)[C@@H]2C(=O)[O-].[Na+]` (stereo partly drawn) [Oxacillin sodium], the “Bioavailability after oral administration” value (from here on “Bioavailability”) ([3]; po) is listed as 30-35%.
`Cc1onc(-c2c(Cl)cccc2Cl)c1C(=O)N[C@@H]1C(=O)N2[C@@H]1SC(C)(C)[C@@H]2C(=O)O` [Dicloxacillin] showed a concentration at 0 h (in vivo) of 0 ng/mL, a concentration at 0.5 h (in vivo) of 700 ng/mL and a concentration at 1 h (in vivo) of 810 ng/mL. For the same molecule, the concentration at 2 h (in vivo) was 2260 ng/mL, the concentration at 3 h (in vivo) was 3100 ng/mL and the concentration at 4 h (in vivo) was 3940 ng/mL. The concentration at 6 h (in vivo) was 4100 ng/mL, the concentration at 8 h (in vivo) was 2960 ng/mL and the concentration at 10 h (in vivo) was 2400 ng/mL. The concentration at 12 h (in vivo) was 1380 ng/mL, the concentration at 14 h (in vivo) was 630 ng/mL and the concentration at 16 h (in vivo) was 300 ng/mL. For the same molecule, the concentration at 20 h (in vivo) was 0 ng/mL, the concentration at 24 h (in vivo) was 0 ng/mL and the Zone of inhibition (S. aureus [C2]) was 15 mm. The Zone of inhibition (E. coli [C1]) was 9 mm, the Zone of inhibition (S. epidermidis [C4]) was 15 mm and the Zone of inhibition [4] was 10 mm. For the same molecule, the “Bound to plasma proteins” value (plasma proteins; plasma) was 90-98%, the Plasma protein binding (plasma proteins; plasma) was 90-98% and the “Bioavailability” value ([3]; po) was 60-80%. For the same molecule, the Oral absorption ([3]; po) was 60-80%, the “Excreted into the urine” value [3] was “about 60%” and the Plasma half life [3] was 0.5 to 1 h. The Plasma half-life [3] was 30 to 90 min, the “Urinary Excretion” value [3] was 60% and the “Vol Distribution” value [3] was 0.1 mL/g. The Volume of distribution [3] was 0.1 mL/g.
In the case of `C=CC1=C(C(=O)O)N2C(=O)[C@@H](NC(=O)/C(=N\OCC(=O)O)c3csc(N)n3)[C@H]2SC1` [Cefixime], the Acute toxicity [5] is listed as “negligibly low”, the “Plasma concentration from the formulation compared with conventional separate dosing” value [2] is listed as “better” and the Blood plasma conc ([2]; separate tablets (Cloxacillin 250 mg × 2, Cefixime 200 mg), 1 hrs) is listed as 0.46. It also gave a Blood plasma conc ([2]; separate tablets (Cloxacillin 250 mg × 2, Cefixime 200 mg), 2 hrs) of 1.23, a Blood plasma conc ([2]; separate tablets (Cloxacillin 250 mg × 2, Cefixime 200 mg), 3 hrs) of 1.52 and a Blood plasma conc ([2]; separate tablets (Cloxacillin 250 mg × 2, Cefixime 200 mg), 4 hrs) of 1.79. For the same molecule, the Blood plasma conc ([2]; separate tablets (Cloxacillin 250 mg × 2, Cefixime 200 mg), 6 hrs) was 1.14, the Blood plasma conc ([2]; separate tablets (Cloxacillin 250 mg × 2, Cefixime 200 mg), 8 hrs) was 0.88 and the Blood plasma conc ([2]; separate tablets (Cloxacillin 250 mg × 2, Cefixime 200 mg), 9 hrs) was 0.72. The Blood plasma conc ([2]; separate tablets (Cloxacillin 250 mg × 2, Cefixime 200 mg), 10 hrs) was 0.6, the Blood plasma conc ([2]; separate tablets (Cloxacillin 250 mg × 2, Cefixime 200 mg), 12 hrs) was 0.5 and the Blood plasma conc ([2]; separate tablets (Cloxacillin 250 mg × 2, Cefixime 200 mg), 14 hrs) was 0.36. The Blood plasma conc ([2]; separate tablets (Cloxacillin 250 mg × 2, Cefixime 200 mg), 16 hrs) was 0.2, the Blood plasma conc ([2]; separate tablets (Cloxacillin 250 mg × 2 at 6 hour interval, Cefixime 200 mg), 0 hrs, average of 24) was 0 and the Blood plasma conc ([2]; synergetic formulation (Cloxacillin 500 mg, Cefixime in combination), 0 hrs, average of 24) was 0. For the same molecule, the Blood plasma conc ([2]; synergetic formulation (Cloxacillin 500 mg, Cefixime in combination), 1 hrs) was 0.7, the Blood plasma conc ([2]; synergetic formulation (Cloxacillin 500 mg, Cefixime in combination), 2 hrs) was 1.4 and the Blood plasma conc ([2]; synergetic formulation (Cloxacillin 500 mg, Cefixime in combination), 3 hrs) was 1.58. The Blood plasma conc ([2]; synergetic formulation (Cloxacillin 500 mg, Cefixime in combination), 4 hrs) was 2.01, the Blood plasma conc ([2]; synergetic formulation (Cloxacillin 500 mg, Cefixime in combination), 6 hrs) was 1.52 and the Blood plasma conc ([2]; synergetic formulation (Cloxacillin 500 mg, Cefixime in combination), 8 hrs) was 1.03. The Blood plasma conc ([2]; synergetic formulation (Cloxacillin 500 mg, Cefixime in combination), 9 hrs) was 0.91, the Blood plasma conc ([2]; synergetic formulation (Cloxacillin 500 mg, Cefixime in combination), 10 hrs) was 0.72 and the Blood plasma conc ([2]; synergetic formulation (Cloxacillin 500 mg, Cefixime in combination), 12 hrs) was 0.6. The Blood plasma conc ([2]; synergetic formulation (Cloxacillin 500 mg, Cefixime in combination), 14 hrs) was 0.34, the Blood plasma conc ([2]; synergetic formulation (Cloxacillin 500 mg, Cefixime in combination), 16 hrs) was 0.18 and the Plasma protein binding (plasma proteins; Table 1) was 60-70%. For the same molecule, the concentration at 0 h [6] was 0 ng/mL, the concentration at 0.5 h [6] was 360 ng/mL and the concentration at 1 h [6] was 520 ng/mL. It also gave a concentration at 2 h [6] of 1340 ng/mL, a concentration at 3 h [6] of 1620 ng/mL and a concentration at 4 h [6] of 1840 ng/mL. For the same molecule, the concentration at 6 h [6] was 1560 ng/mL, the concentration at 8 h [6] was 980 ng/mL and the concentration at 10 h [6] was 600 ng/mL. For the same molecule, the concentration at 12 h [6] was 500 ng/mL, the concentration at 14 h [6] was 350 ng/mL and the concentration at 16 h [6] was 200 ng/mL. The concentration at 20 h [6] was 0 ng/mL, the concentration at 24 h [6] was 0 ng/mL and the Oral absorption ([3]; po) was 50%. The “Oral dose absorbed from the gastrointestinal tract” value ([3]; po) was 40-50%, the “Eliminated by nonrenal mechanisms” value [3] was “Up to 60%” and the Plasma half-life [3] was 180 min. The “Urinary Excretion” value [3] was 34-48%, the “Vol Distribution” value [3] was 0.30 ± 0.03 and the “Solubility in dehydrated alcohol” value [7] was “sparingly soluble”. For the same molecule, the “Solubility in ethyl acetate” value [7] was “practically insoluble”, the “Solubility in methyl alcohol” value [7] was “freely soluble” and the Solubility in water [7] was “slightly soluble”.
For `Cc1onc(-c2ccccc2Cl)c1C(=O)N[C@@H]1C(=O)N2[C@@H]1SC(C)(C)[C@@H]2C(=O)O` [Cloxacillin sodium, chlorphenylmethyl isoxazolyl penicillin sodium], the “Bioavailability” value ([3]; po) is given as 37-60%.
